Experimental data reported in PubChem BioAssay AID2060489 (Molecular Pharmacology Branch, DTP, NCI, 2025).

Test system: 922993-354-T-J3-PDC complex spheroids, viability
Experiment: Anticancer human tumor 922993-354-T-J3-PDC patient-derived endometrial carcinoma cell line growth inhibition [GQUAD]
Settings: for IC50: curve of first compound; for viability, T/C: stronger effect = lower value
Summary of the method: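 Tumor cells were grown as complex spheroids with HUVEC endothelial cells and mesenchymal stem cells as stroma. G-quadruplex stabilizers were combined with targeted agents over half-log dilutions from near the clinical Cmax, or from 10 microM.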

[1] = second compound 0.0316 µM, first compound 0.0316 µM
[2] = second compound 0.0316 µM, first compound 0.1 µM
[3] = second compound 0.0316 µM, first compound 0.316 µM
[4] = second compound 0.0316 µM, first compound 1 µM
[5] = second compound 0.0316 µM, first compound 3.16 µM
[6] = second compound 0.0316 µM, first compound 10 µM
[7] = second compound 0.1 µM, first compound 0.0316 µM
[8] = second compound 0.1 µM, first compound 0.1 µM
[9] = second compound 0.1 µM, first compound 0.316 µM
[10] = second compound 0.1 µM, first compound 1 µM
[11] = second compound 0.1 µM, first compound 3.16 µM
[12] = second compound 0.1 µM, first compound 10 µM
[13] = second compound 0.316 µM, first compound 0.0316 µM
[14] = second compound 0.316 µM, first compound 0.1 µM
[15] = second compound 0.316 µM, first compound 0.316 µM
[16] = second compound 0.316 µM, first compound 1 µM
[17] = second compound 0.316 µM, first compound 3.16 µM
[18] = second compound 0.316 µM, first compound 10 µM
[19] = second compound 1 µM, first compound 0.0316 µM
[20] = second compound 1 µM, first compound 0.1 µM
[21] = second compound 1 µM, first compound 0.316 µM
[22] = second compound 1 µM, first compound 1 µM
[23] = second compound 1 µM, first compound 3.16 µM
[24] = second compound 1 µM, first compound 10 µM
[25] = second compound 3.16 µM, first compound 0.0316 µM
[26] = second compound 3.16 µM, first compound 0.1 µM
[27] = second compound 3.16 µM, first compound 0.316 µM
[28] = second compound 3.16 µM, first compound 1 µM
[29] = second compound 3.16 µM, first compound 3.16 µM
[30] = second compound 3.16 µM, first compound 10 µM
[31] = second compound 10 µM, first compound 0.0316 µM
[32] = second compound 10 µM, first compound 0.1 µM
[33] = second compound 10 µM, first compound 0.316 µM
[34] = second compound 10 µM, first compound 1 µM
[35] = second compound 10 µM, first compound 3.16 µM
[36] = second compound 10 µM, first compound 10 µM
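Also: spheroids exposed to compounds for seven days.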
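For viability, T/C in this document: 100% = DMSO vehicle control viability.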

SMILES: CC(C)n1c(=O)n(C)c2cnc3cc(F)c(-c4ccc(OCCCN5CCCCC5)nc4)cc3c21 + Cc1[nH]c2ccc(F)cc2c1-c1nc2c3cccnc3c3ncccc3c2[nH]1
- IC50 (second compound 0.0316 µM): > 10 µM
- IC50 (second compound 0.1 µM): > 10 µM
- IC50 (second compound 0.316 µM): > 10 µM
- IC50 (second compound 1 µM): > 10 µM
- IC50 (second compound 3.16 µM): > 10 µM
- IC50 (second compound 10 µM): > 10 µM
- viability, T/C [1]: 110%
- viability, T/C [2]: 123%
- viability, T/C [3]: 113%
- viability, T/C [4]: 91.4%
- viability, T/C [5]: 77.3%
- viability, T/C [6]: 71.3%
- viability, T/C [7]: 116%
- viability, T/C [8]: 95.3%
- viability, T/C [9]: 103%
- viability, T/C [10]: 96.2%
- viability, T/C [11]: 72.9%
- viability, T/C [12]: 60.3%
- viability, T/C [13]: 91.8%
- viability, T/C [14]: 124%
- viability, T/C [15]: 115%
- viability, T/C [16]: 114%
- viability, T/C [17]: 88.2%
- viability, T/C [18]: 62.9%
- viability, T/C [19]: 118%
- viability, T/C [20]: 83.4%
- viability, T/C [21]: 131%
- viability, T/C [22]: 112%
- viability, T/C [23]: 88.5%
- viability, T/C [24]: 75.9%
- viability, T/C [25]: 100%
- viability, T/C [26]: 89.5%
- viability, T/C [27]: 91.5%
- viability, T/C [28]: 95.1%
- viability, T/C [29]: 84.8%
- viability, T/C [30]: 80.8%
- viability, T/C [31]: 98.9%
- viability, T/C [32]: 93.7%
- viability, T/C [33]: 94%
- viability, T/C [34]: 97.4%
- viability, T/C [35]: 85.5%
- viability, T/C [36]: 73.8%

SMILES: CC1COCCN1c1cc(C2(O)CC3CCC(C2)O3)c2cnn(-c3ccn[nH]3)c2n1 (stereo not drawn) + Cc1[nH]c2ccc(F)cc2c1-c1nc2c3cccnc3c3ncccc3c2[nH]1
- IC50 (second compound 0.0316 µM): 0.332 µM
- IC50 (second compound 0.1 µM): 0.519 µM
- IC50 (second compound 0.316 µM): 0.655 µM
- IC50 (second compound 1 µM): 0.355 µM
- IC50 (second compound 3.16 µM): 0.622 µM
- IC50 (second compound 10 µM): 0.435 µM
- viability, T/C [1]: 87.8%
- viability, T/C [2]: 67.6%
- viability, T/C [3]: 50.8%
- viability, T/C [4]: 37.5%
- viability, T/C [5]: 19.9%
- viability, T/C [6]: 15.1%
- viability, T/C [7]: 85.7%
- viability, T/C [8]: 84.5%
- viability, T/C [9]: 62.2%
- viability, T/C [10]: 33.3%
- viability, T/C [11]: 21.2%
- viability, T/C [12]: 18.5%
- viability, T/C [13]: 85.4%
- viability, T/C [14]: 94.3%
- viability, T/C [15]: 69.9%
- viability, T/C [16]: 37.2%
- viability, T/C [17]: 22%
- viability, T/C [18]: 13.3%
- viability, T/C [19]: 84.4%
- viability, T/C [20]: 96.7%
- viability, T/C [21]: 52.9%
- viability, T/C [22]: 30.7%
- viability, T/C [23]: 24.4%
- viability, T/C [24]: 17.7%
- viability, T/C [25]: 86.4%
- viability, T/C [26]: 70.5%
- viability, T/C [27]: 68.6%
- viability, T/C [28]: 37.1%
- viability, T/C [29]: 27.4%
- viability, T/C [30]: 19.6%
- viability, T/C [31]: 89.2%
- viability, T/C [32]: 77.5%
- viability, T/C [33]: 53.3%
- viability, T/C [34]: 37.6%
- viability, T/C [35]: 23.6%
- viability, T/C [36]: 18.2%

SMILES: CC1COCCN1c1cc(C2(S(C)(=N)=O)CC2)nc(-c2ccnc3[nH]ccc23)n1 (stereo not drawn) + Cc1[nH]c2ccc(F)cc2c1-c1nc2c3cccnc3c3ncccc3c2[nH]1
- IC50 (second compound 0.0316 µM): > 10 µM
- IC50 (second compound 0.1 µM): > 10 µM
- IC50 (second compound 0.316 µM): > 10 µM
- IC50 (second compound 1 µM): > 10 µM
- IC50 (second compound 3.16 µM): > 10 µM
- IC50 (second compound 10 µM): > 10 µM
- viability, T/C [1]: 103%
- viability, T/C [2]: 96.9%
- viability, T/C [3]: 110%
- viability, T/C [4]: 83.9%
- viability, T/C [5]: 114%
- viability, T/C [6]: 60.6%
- viability, T/C [7]: 110%
- viability, T/C [8]: 107%
- viability, T/C [9]: 138%
- viability, T/C [10]: 132%
- viability, T/C [11]: 106%
- viability, T/C [12]: 67.5%
- viability, T/C [13]: 135%
- viability, T/C [14]: 117%
- viability, T/C [15]: 109%
- viability, T/C [16]: 124%
- viability, T/C [17]: 79.6%
- viability, T/C [18]: 67%
- viability, T/C [19]: 118%
- viability, T/C [20]: 106%
- viability, T/C [21]: 109%
- viability, T/C [22]: 106%
- viability, T/C [23]: 106%
- viability, T/C [24]: 80.1%
- viability, T/C [25]: 92.3%
- viability, T/C [26]: 124%
- viability, T/C [27]: 87.2%
- viability, T/C [28]: 104%
- viability, T/C [29]: 88.8%
- viability, T/C [30]: 81.4%
- viability, T/C [31]: 138%
- viability, T/C [32]: 104%
- viability, T/C [33]: 128%
- viability, T/C [34]: 96.3%
- viability, T/C [35]: 101%
- viability, T/C [36]: 89%

SMILES: O=C(c1cc(Cc2n[nH]c(=O)c3ccccc23)ccc1F)N1CCN(C(=O)C2CC2)CC1 + Cc1[nH]c2ccc(F)cc2c1-c1nc2c3cccnc3c3ncccc3c2[nH]1
- IC50 (second compound 0.0316 µM): > 10 µM
- IC50 (second compound 0.1 µM): > 10 µM
- IC50 (second compound 0.316 µM): > 10 µM
- IC50 (second compound 1 µM): > 10 µM
- IC50 (second compound 3.16 µM): > 10 µM
- IC50 (second compound 10 µM): > 10 µM
- viability, T/C [1]: 107%
- viability, T/C [2]: 113%
- viability, T/C [3]: 98.3%
- viability, T/C [4]: 102%
- viability, T/C [5]: 89.5%
- viability, T/C [6]: 81.1%
- viability, T/C [7]: 108%
- viability, T/C [8]: 119%
- viability, T/C [9]: 88.3%
- viability, T/C [10]: 99.5%
- viability, T/C [11]: 124%
- viability, T/C [12]: 95.5%
- viability, T/C [13]: 93%
- viability, T/C [14]: 90%
- viability, T/C [15]: 72.6%
- viability, T/C [16]: 115%
- viability, T/C [17]: 102%
- viability, T/C [18]: 118%
- viability, T/C [19]: 91.5%
- viability, T/C [20]: 100%
- viability, T/C [21]: 108%
- viability, T/C [22]: 92.3%
- viability, T/C [23]: 92%
- viability, T/C [24]: 68.3%
- viability, T/C [25]: 81.1%
- viability, T/C [26]: 98.3%
- viability, T/C [27]: 89.7%
- viability, T/C [28]: 88.1%
- viability, T/C [29]: 97.9%
- viability, T/C [30]: 88.8%
- viability, T/C [31]: 106%
- viability, T/C [32]: 110%
- viability, T/C [33]: 88.2%
- viability, T/C [34]: 80.2%
- viability, T/C [35]: 101%
- viability, T/C [36]: 83.7%
